Values joined by “and” are separate entries in the source; they are usually repeats but may differ in a detail not shown here. Equal values may be shown once. Read-outs that look alike come from different tables or passages of the source.
Legend:
HOS cells = assay: Cellular cytotoxicity; format: cell-based, human; settings: HOS cells
[1] = test system: HIV-1 containing wild-type (WT) integrase; assay: Antiviral assay, cells infected with HIV-1 vector containing WT integrase; format: cell-based
[2] = test system: HIV-1 containing G140S/Q148H integrase; format: cell-based; settings: cells infected with mutant vector
[3] = test system: HIV-1 containing Y143R integrase; format: cell-based; settings: cells infected with mutant vector
[4] = test system: HIV-1 containing N155H integrase; format: cell-based; settings: cells infected with mutant vector
HIV-1 integrase Y143R = assay: In vitro ST assay, Y143R mutant IN; format: biochemical; settings: mutant enzyme vs WT enzyme; pre-cleaved DNA, Mg2+
HIV-1 integrase N155H = assay: In vitro ST assay, N155H mutant IN; format: biochemical
Cellular cytotoxicity = format: cell-based, human; settings: human, HOS osteosarcoma cells
[5] = test system: HIV-1 integrase G140S/Q148H; settings: mutant enzyme vs WT enzyme; pre-cleaved DNA, Mg2+
[6] = Human immunodeficiency virus 1, read-out: EC50 (WT)

SMILES	CC50 (HOS cells; 48 hrs) [µM]	EC50 ([1]; read-out: EC50 (WT), HIV-1 vector with WT integrase) [nM]	Fold-loss of antiviral potency relative to virus containing WT enzyme, G140S/Q148H [2]	Fold-loss of antiviral potency relative to virus containing WT enzyme, G140S/Q148H ([2]; listed as MK-0536) [fold]	Fold-loss of antiviral potency relative to virus containing WT enzyme, Y143R [3]	Fold-loss of antiviral potency relative to virus containing WT enzyme, N155H [4]	Fold-loss of potency relative to WT, Y143R (ST, in vitro) (HIV-1 integrase Y143R)	Fold less sensitive than raltegravir to N155H mutation (in vitro) (HIV-1 integrase N155H; comparison of fold-losses, enzyme assay)	Fold-loss of potency relative to WT, N155H (ST, in vitro) (HIV-1 integrase N155H; mutant enzyme vs WT enzyme, pre-cleaved DNA, Mg2+)	CC50 at 48 h (Cellular cytotoxicity) [µM]	Cytotoxicity fold lower than catechol-containing analogue 3 (HOS cells; ratio of CC50 values)	EC50 [1, 6] [nM]	Fold-loss of potency relative to WT, G140S/Q148H (ST, in vitro) [5]
CC(C)n1c(C(=O)N(C)C)c2c(c(O)c1=O)C(=O)N(Cc1ccc(F)c(Cl)c1)CC2 [compound 2, MK-0536, reference compound]	> 100	17 ± 4	5x fold	5	0.4x fold	1x fold	–	–	–	–	–	–	–
COC(=O)CCc1c2c(c(O)c(=O)n1C(C)C)C(=O)N(Cc1ccc(F)c(Cl)c1)C2=O [5e, Methyl 3-(2-(3-chloro-4-fluorobenzyl)-7-hydroxy-5-isopropyl-1,3,6-trioxo-2,3,5,6-tetrahydro-1H-pyrrolo[3,4-c]pyridin-4-yl)propanoate]	–	–	2 fold and 2x fold	–	2 fold and 2x fold	3 fold and 3x fold	2 fold and 2x fold	approximately 2 fold	4 fold and 4x fold	392 ± 66	approximately 70 fold	9200 ± 1900	12 fold and 12x fold
Cc1nnc(C(=O)NC(C)(C)c2nc(C(=O)NCc3ccc(F)cc3)c(O)c(=O)n2C)o1 [compound 1, raltegravir, reference compound]	–	–	–	–	–	–	–	–	–	> 100	–	4 ± 2	–

— PMC6385889 (Chemical biology & drug design, 2011)
